Measurements: EP4043466B1, “PRC2 INHIBITORS” (Mirati Therapeutics, Inc., priority 2018, dated 2019)
pIC50: −log10 of the molar value. Like-named read-outs stand apart in the source and are kept apart here.

Columns and labels:
[1] = test system: Karpas 422 cells; experiment: Karpas 422 cell viability, CTG (Cell Titre Glo) assay; format: cell-based, human; details: Homo sapiens; Inhibition of proliferation of Karpas 422 cells (EZH2 Y641N); viability measured Day 4, Day 7 or Day 11, time point of the tabulated values not stated
Description: Karpas 422 cell line is a human B cell non-Hodgkin's lymphoma cell line established from a patient having DLBCL. This EZH2 heterozygotic cell line expresses a mutant form of EZH2 enzyme (Y641N) that increases histone H3 methylation and this mutation has been implicated in the tumorgenesis of lymphomas, such as DLBCL.
Karpas 422 cells (PHE cat no., 06101702) were cultured in RPMI medium supplemented with 20% fetal bovine serum and 1% penicillin/1% streptomycin and plated at a density of 1000 cells/90 µl/well in 96 well white assay plates. A dose response curve for compounds of the present invention was determined by adding a 10µl aliquot of stock solutions of varying concentrations of compounds to the same medium in each well, over a concentration range of 10µM using 3-fold dilutions to a final concentration of 1.5nM. The plates were incubated at 37° C for predetermined time periods, Day 4, Day 7, or Day 11, and the viability of the cells was measured using a CTG assay kit (Cell Titre Glo; Promega cat.no G7573) on Day 4 and Day 7 in accordance with the manufacturer's instructions.
For the viability assay for the Day 11 plates, the plates were subjected to centrifugation at 1100 rpm for five minutes on Day 7 and the supernatant was removed by aspiration. The cells were resuspended in 90 µl aliquot of the appropriate growth medium lacking the compound followed by addition of 10 µl of a 10X stock of the same compound at the same concentration. The viability of the Day 11 cells was measured using the CTG assay kit described above in accordance with the manufacturer's instructions. The IC50 values for each compound at each predetermined time point were calculated using Graph pad PRISM software and the results are shown in Table 15. A = ≤250 nM; B = […] - ≤500 nM; and C = >500 nM.

[2] = biological target: purified human, His-tagged PRC2 complex (Homo sapiens, UniProt O75530+Q15910); experiment: Hot Spot HMT assay: inhibition of PRC2 enzymatic activity (transfer of tritiated methyl from SAM to core histone, filter binding); format: biochemical
Chain of purified human, His-tagged PRC2 complex (Q15910 whole entry): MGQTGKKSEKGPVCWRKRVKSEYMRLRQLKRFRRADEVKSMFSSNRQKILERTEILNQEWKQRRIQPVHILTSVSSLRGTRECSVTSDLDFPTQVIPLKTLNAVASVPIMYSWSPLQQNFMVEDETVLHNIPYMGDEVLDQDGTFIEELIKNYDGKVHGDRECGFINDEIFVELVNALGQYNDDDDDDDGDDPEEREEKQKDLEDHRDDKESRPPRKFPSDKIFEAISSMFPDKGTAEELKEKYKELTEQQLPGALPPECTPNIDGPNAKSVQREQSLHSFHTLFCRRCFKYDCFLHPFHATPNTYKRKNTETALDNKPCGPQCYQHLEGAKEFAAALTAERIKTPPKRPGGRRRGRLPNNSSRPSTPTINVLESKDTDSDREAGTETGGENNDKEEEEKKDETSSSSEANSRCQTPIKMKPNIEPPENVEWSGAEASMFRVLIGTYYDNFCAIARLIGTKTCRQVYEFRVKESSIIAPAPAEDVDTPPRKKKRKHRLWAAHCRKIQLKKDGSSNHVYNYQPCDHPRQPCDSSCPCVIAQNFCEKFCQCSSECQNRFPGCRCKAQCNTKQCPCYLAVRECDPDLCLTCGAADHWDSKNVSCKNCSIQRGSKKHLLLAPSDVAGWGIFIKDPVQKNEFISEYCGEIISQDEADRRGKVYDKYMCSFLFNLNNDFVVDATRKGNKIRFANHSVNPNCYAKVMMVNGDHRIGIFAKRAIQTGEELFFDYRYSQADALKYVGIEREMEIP
Chain of purified human, His-tagged PRC2 complex (O75530 whole entry): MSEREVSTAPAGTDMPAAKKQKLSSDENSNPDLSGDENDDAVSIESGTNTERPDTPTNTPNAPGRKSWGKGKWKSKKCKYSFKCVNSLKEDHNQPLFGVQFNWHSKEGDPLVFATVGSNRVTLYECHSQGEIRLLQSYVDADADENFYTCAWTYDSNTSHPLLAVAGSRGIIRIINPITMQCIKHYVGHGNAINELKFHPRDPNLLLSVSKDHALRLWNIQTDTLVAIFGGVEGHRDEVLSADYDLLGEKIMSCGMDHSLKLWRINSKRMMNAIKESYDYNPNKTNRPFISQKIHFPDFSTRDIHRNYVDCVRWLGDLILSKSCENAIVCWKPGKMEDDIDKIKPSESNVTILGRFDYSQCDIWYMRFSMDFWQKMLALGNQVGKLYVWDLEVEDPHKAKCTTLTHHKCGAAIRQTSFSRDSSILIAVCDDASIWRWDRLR
Chain of purified human, His-tagged PRC2 complex (Q15022 whole entry partner): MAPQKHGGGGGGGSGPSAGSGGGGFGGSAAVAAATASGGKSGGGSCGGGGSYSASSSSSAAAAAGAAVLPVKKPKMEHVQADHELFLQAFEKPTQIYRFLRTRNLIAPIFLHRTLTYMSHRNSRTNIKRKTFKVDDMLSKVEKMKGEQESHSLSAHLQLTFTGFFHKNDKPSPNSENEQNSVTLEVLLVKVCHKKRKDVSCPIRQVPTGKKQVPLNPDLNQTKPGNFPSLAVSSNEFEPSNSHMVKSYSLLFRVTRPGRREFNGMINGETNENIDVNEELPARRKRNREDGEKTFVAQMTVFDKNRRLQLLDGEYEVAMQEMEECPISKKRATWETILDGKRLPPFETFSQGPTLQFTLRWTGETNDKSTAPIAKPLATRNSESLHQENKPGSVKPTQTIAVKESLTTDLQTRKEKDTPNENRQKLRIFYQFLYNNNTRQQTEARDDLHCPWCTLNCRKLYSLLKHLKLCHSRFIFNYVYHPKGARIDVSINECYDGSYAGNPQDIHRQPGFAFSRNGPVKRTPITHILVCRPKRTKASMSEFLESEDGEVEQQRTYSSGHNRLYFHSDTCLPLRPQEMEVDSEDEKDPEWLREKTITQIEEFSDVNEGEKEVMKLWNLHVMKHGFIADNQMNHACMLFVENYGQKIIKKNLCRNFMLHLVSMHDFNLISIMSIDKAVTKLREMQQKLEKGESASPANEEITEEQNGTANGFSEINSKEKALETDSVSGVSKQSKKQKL
Chain of purified human, His-tagged PRC2 complex (Q6ZN18 whole entry partner): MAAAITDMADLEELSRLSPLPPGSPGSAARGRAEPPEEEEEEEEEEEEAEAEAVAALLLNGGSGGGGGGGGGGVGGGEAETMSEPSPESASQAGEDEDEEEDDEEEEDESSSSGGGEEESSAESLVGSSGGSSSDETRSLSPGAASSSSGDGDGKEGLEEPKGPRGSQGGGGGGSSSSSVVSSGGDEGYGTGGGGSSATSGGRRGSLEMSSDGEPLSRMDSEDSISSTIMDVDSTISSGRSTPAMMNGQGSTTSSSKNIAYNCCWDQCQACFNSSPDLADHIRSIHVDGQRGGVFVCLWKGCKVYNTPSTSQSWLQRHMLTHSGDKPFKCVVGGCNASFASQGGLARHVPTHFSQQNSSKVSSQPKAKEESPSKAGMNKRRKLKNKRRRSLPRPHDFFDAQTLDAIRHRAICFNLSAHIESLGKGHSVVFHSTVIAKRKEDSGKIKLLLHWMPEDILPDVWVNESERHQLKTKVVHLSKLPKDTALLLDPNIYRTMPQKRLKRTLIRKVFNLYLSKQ
Chain of purified human, His-tagged PRC2 complex (Q09028 whole entry partner): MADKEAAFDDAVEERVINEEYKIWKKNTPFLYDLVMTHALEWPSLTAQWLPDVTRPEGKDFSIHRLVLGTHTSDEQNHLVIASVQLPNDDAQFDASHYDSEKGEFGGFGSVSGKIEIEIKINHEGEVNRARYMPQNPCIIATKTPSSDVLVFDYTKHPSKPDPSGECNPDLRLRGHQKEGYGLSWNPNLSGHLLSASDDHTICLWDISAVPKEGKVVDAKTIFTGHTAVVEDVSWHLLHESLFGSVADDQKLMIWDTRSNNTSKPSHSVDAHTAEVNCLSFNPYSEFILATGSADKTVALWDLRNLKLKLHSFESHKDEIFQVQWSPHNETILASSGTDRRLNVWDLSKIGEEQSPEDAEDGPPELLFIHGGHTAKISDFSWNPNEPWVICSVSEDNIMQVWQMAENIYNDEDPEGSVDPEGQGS
Source text: The assay uses purified human, His-tagged PRC2 complex, including N-terminal His-tagged EZH2 enzyme, N-terminal Flag-tagged embryonic ectoderm development protein (EED), N-terminal His-tagged suppressor of zeste 12 (SUZ12), N-terminal His-tagged AEBP2, and N-terminal His-tagged RbAp48. In this assay, the transfer of the tritiated methyl group from radiolabeled S-adenosyl methionine (SAM) to purified core histone protein by EZH2 is quantitated after filtration to determine the activity of the core PRC2 complex in the presence and absence of compound.
The initial starting concentration for the serial dilutions of each compound was 1.0 µM. […] SAH (S-(5-adenosyl)-L-homocysteine) was used as a positive control for assay validation.
An aliquot of each serial dilution of test compound was added to deep 384 well plate using Acoustic Technology instrument (Echo 550, LabCyte) containing reaction buffer (50 mM Tris-HCl (pH 8.)), 0.01% Brij35, 1 mM EDTA, 1 mM DTT, 1 mM PMSF and 1% DMSO), 10 nM purified PRC2 complex and 0.05 mg/ml core histone H3 in a 5 µl volume. The reaction was mixed gently and then pre-incubated for 20 min at 30°C. The enzymatic reaction was initiated by adding 1 uM S-Adenosyl-L-[methyl - ^3H]methionine and incubated for 1 hr at 30°C. After 1 hr, the reaction product was detected using a filter binding method and the amount of tritiated H3 core histone was quantitated using a scintillation counter.

[3] = Inhibition of PRC2-mediated enzymatic activity, 10 nM PRC2 complex, 0.05 mg/ml core histone H3, 1 uM 3H-SAM, 1 hr at 30°C

Row | Structure (SMILES) | pIC50 [1] | pIC50 [2, 3] | pIC50 [2]
1 | COc1ncc(-c2cnc(NCc3c(F)ccc4c3CCO4)n3cc(C#N)nc23)cc1C#N [Example 130, 8-(5-cyano-6-methoxypyridin-3-yl)-5-(((5-fluoro-2,3-dihydrobenzofuran-4-yl)methyl)amino)imidazo[1,2-c]pyrimidine-2-carbonitrile] | < 6.30 | 6.30 to 7.00 | –
2 | Cc1ncccc1-c1cnc(NCc2c(F)ccc3occc23)n2cc(C(N)=O)nc12 [Example 12, 5-(((5-fluorobenzofuran-4-yl)methyl)amino)-8-(2-methylpyridin-3-yl)imidazo[1,2-c]pyrimidine-2-carboxamide] | < 6.30 | > 7.00 | –
3 | N#Cc1cn2c(NCc3c(F)ccc4c3CCO4)ncc(-c3cncc(F)c3)c2n1 [Example 97, 5-(((5-fluoro-2,3-dihydrobenzofuran-4-yl)methyl)amino)-8-(5-fluoropyridin-3-yl)imidazo[1,2-c]pyrimidine-2-carbonitrile] | ≥ 6.60 | > 7.00 | –
4 | Cc1cc(S(C)(=O)=O)ccc1-c1cnc(NCc2c(F)ccc3c2CCO3)n2cc(C#N)nc12 [Example 87, 5-(((5-fluoro-2,3-dihydrobenzofuran-4-yl)methyl)amino)-8-(2-methyl-4-(methylsulfonyl)phenyl)imidazo[1,2-c]pyrimidine-2-carbonitrile] | ≥ 6.60 | – | –
5 | CN(C)Cc1ccc(-c2cnc(NCc3c(F)ccc4c3CCO4)n3cc(C#N)nc23)c(Cl)c1F [Example 83, 8-(2-chloro-4-((dimethylamino)methyl)-3-fluorophenyl)-5-(((5-fluoro-2,3-dihydrobenzofuran-4-yl)methyl)amino)imidazo[1,2-c]pyrimidine-2-carbonitrile] | – | > 7.00 | –
6 | Cc1cn(-c2cnc(NCc3c(F)ccc4c3CCO4)n3cc(C(=O)O)nc23)cn1 [Example 4, 5-(((5-fluoro-2,3-dihydrobenzofuran-4-yl)methyl)amino)-8-(4-methyl-1H-imidazol-1-yl)imidazo[1,2-c]pyrimidine-2-carboxylic acid] | – | > 7.00 | –
7 | Cc1cn(-c2cnc(NCc3c(F)ccc4c3CCO4)n3cc(C#N)nc23)cn1 [Example 139, 5-(((5-fluoro-2,3-dihydrobenzofuran-4-yl)methyl)amino)-8-(4-methyl-1H-imidazol-1-yl)imidazo[1,2-c]pyrimidine-2-carbonitrile] | ≥ 6.60 | – | –
8 | CN(C)C(=O)c1ccc(-c2cnc(NCc3c(F)ccc4c3CCO4)n3cc(C#N)nc23)c(Cl)c1F [Example 34, 3-chloro-4-(2-cyano-5-(((5-fluoro-2,3-dlhydrobenzofuran-4-yl)methyl)amino)imidazo[1,2-c]pyrimidin-8-yl)-2-fluoro-N,N-dimethylbenzamide] | – | > 7.00 | –
9 | CN(C)C(=O)c1cc(Cl)c(-c2cnc(NCc3c(F)ccc4c3CCO4)n3cc(C#N)nc23)cc1F [Example 35, 5-chloro-4-(2-cyano-5-(((5-fluoro-2,3-dlhydrobenzofuran-4-yl)methyl)amino)imidazo[1,2-c]pyrimidin-8-yl)-2-fluoro-N,N-dimethylbenzamide] | – | > 7.00 | –
10 | N#Cc1cncc(-c2cnc(NCc3c(F)ccc4c3CCO4)n3cc(C#N)nc23)c1 [Example 95, 8-(5-cyanopyridin-3-yl)-5-(((5-fluoro-2,3-dihydrobenzofuran-4-yl)methyl)amino)imidazo[1,2-c]pyrimidine-2-carbonitrile] | – | > 7.00 | –
11 | CN(C)Cc1cc(-c2cnc(NCc3c(F)ccc4c3CCO4)n3cc(C#N)nc23)n(C)n1 [Example 210, 8-(3-((dimethylamino)methyl)-1-methyl-1H-pyrazol-5-yl)-5-(((5-fluoro-2,3-dihydrobenzofuran-4-yl)methyl)amino)imidazo[1,2-c]pyrimidine-2-carbonitrile] | – | – | > 7.00

Second part, led by results:

Row | pIC50 [1] | pIC50 [2, 3] | Structure (SMILES) | pIC50 [2]
12 | ≥ 6.60 | > 7.00 | CN(C)Cc1ccc(-c2cnc(NCc3c(F)ccc4c3CCO4)n3cc(C#N)nc23)cc1 [Example 112, 8-(4-((dimethylamino)methyl)phenyl)-5-(((5-fluoro-2,3-dihydrobenzofuran-4-yl)methyl)amino)imidazo[1,2-c]pyrimidine-2-carbonitrile] | –
13 | ≥ 6.60 | > 7.00 | Cc1cc(-c2cnc(NCc3c(F)ccc4c3CCO4)n3cc(C#N)nc23)cnn1 [Example 41, 5-(((5-fluoro-2,3-dihydrobenzofuran-4-yl)methyl)amino)-8-(6-methylpyridazin-4-yl)imidazo[1,2-c]pyrimidine-2-carbonitrile] | –
14 | < 6.30 | > 7.00 | Cc1nn(C(C)C)cc1-c1cnc(NCc2c(F)ccc3c2CCO3)n2cc(C(=O)O)nc12 [Example 5, 5-(((5-fluoro-2,3-dihydrobenzofuran-4-yl)methyl)amino)-8-(1-isopropyl-3-methyl-1H-pyrazol-4-yl)imidazo[1,2-c]pyrimidine-2-carboxylic acid] | –
15 | 6.30 to 6.60 | > 7.00 | Cc1nn(C(C)C)cc1-c1cnc(NCc2c(F)ccc3c2CCO3)n2cc(C(N)=O)nc12 [Example 13, 5-(((5-fluoro-2,3-dihydrobenzofuran-4-yl)methyl)amino)-8-(1-isopropyl-3-methyl-1H-pyrazol-4-yl)imidazo[1,2-c]pyrimidine-2-carboxamide] | –
16 | ≥ 6.60 | > 7.00 | Cc1nc(N2CCN(C)CC2)ccc1-c1cnc(NCc2c(F)ccc3c2CCO3)n2cc(C(N)=O)nc12 [Example 138, 5-(((5-fluoro-2,3-dihydrobenzofuran-4-yl)methyl)amino)-8-(2-methyl-6-(4-methylpiperazin-1-yl)pyridin-3-yl)imidazo[1,2-c]pyrimidine-2-carboxamide] | –
17 | – | 6.30 to 7.00 | N#Cc1cn2c(NCc3c(F)ccc4c3CCO4)ncc(-c3cnn(Cc4cccnc4)c3)c2n1 [Example 101, 5-(((5-fluoro-2,3-dihydrobenzofuran-4-yl)methyl)amino)-8-(1-(pyridin-3-ylmethyl)-1H-pyrazol-4-yl)imidazo[1,2-c]pyrimidine-2-carbonitrile] | –
18 | – | > 7.00 | CC(=O)Nc1cc(-c2cnc(NCc3c(F)ccc4c3CCO4)n3cc(C#N)nc23)ccn1 [Example 131, N-(4-(2-cyano-5-(((5-fluoro-2,3-dihydrobenzofuran-4-yl)methyl)amino)imidazo[1,2-c]pyrimidin-8-yl)pyridin-2-yl)acetamide] | –
19 | – | 6.30 to 7.00 | COc1cc(C)c(-c2cnc(NCc3c(F)ccc4c3CCO4)n3cc(C(N)=O)nc23)cn1 [Example 14, 5-(((5-fluoro-2,3-dihydrobenzofuran-4-yl)methyl)amino)-8-(6-methoxy-4-methylpyridin-3-yl)imidazo[1,2-c]pyrimidine-2-carboxamide] | –
20 | – | > 7.00 | COc1ccc(-c2cnc(NCc3c(F)ccc4c3CCO4)n3cc(C#N)nc23)cn1 [Example 94, 5-(((5-fluoro-2,3-dihydrobenzofuran-4-yl)methyl)amino)-8-(6-methoxypyridin-3-yl)imidazo[1,2-c]pyrimidine-2-carbonitrile] | –
21 | – | 6.30 to 7.00 | N#Cc1cn2c(NCc3c(F)ccc4c3CCO4)ncc(-c3cnc(N)c(C(F)(F)F)c3)c2n1 [Example 134, 8-(6-amino-5-(trifluoromethyl)pyridin-3-yl)-5-(((5-fluoro-2,3-dihydrobenzofuran-4-yl)methyl)amino)imidazo[1,2-c]pyrimidine-2-carbonitrile] | –
22 | – | < 6.30 | Cc1n[nH]c(C)c1-c1cnc(NCc2c(F)ccc3c2CCO3)n2cc(C#N)nc12 [Example 104, 8-(3,5-dimethyl-1H-pyrazol-4-yl)-5-(((5-fluoro-2,3-dihydrobenzofuran-4-yl)methyl)amino)imidazo[1,2-c]pyrimidine-2-carbonitrile] | –
23 | – | > 7.00 | N#Cc1cn2c(NCc3c(F)ccc4c3CCO4)ncc(-c3ccc(C4COCCN4)cc3)c2n1 (stereo not shown) [Example 225, 5-(((5-fluoro-2,3-dihydrobenzofuran-4-yl)methyl)amino)-8-(4-(morpholin-3-yl)phenyl)imidazo[1,2-c]pyrimidine-2-carbonitrile] | –
